Consider two compounds from ChEMBL document CHEMBL2346515, “Discovery of 4-alkylamino-7-aryl-3-cyanoquinoline LRRK2 kinase inhibitors” (Bioorg Med Chem Lett, 2013).

The subject of data set [1] is Mus musculus. Kind of data set: In vivo inhibition of mouse LRRK2 G2019S mutant phosphorylation at Ser935 expressed in mouse brain at 100 mg/kg, po measured after 3 hrs by ELISA. Type of data set: functional. On the technique in general: ELISA stands for enzyme-linked immunosorbent assay.
Data set [2] can be described thus: Ratio of drug uptake in brain to plasma of mouse expressing mouse LRRK2 G2019S mutant at 30 mg/kg, po. On the set-up: dose 30 mg/kg, route oral. Conditions: read-out: BPR. It is filed as ADME, organism-based.
Data set [3] has as its target T1, Interleukin-1 receptor-associated kinase 4 (Homo sapiens) (UniProt Q9NWZ3).
T1 sequence (whole entry): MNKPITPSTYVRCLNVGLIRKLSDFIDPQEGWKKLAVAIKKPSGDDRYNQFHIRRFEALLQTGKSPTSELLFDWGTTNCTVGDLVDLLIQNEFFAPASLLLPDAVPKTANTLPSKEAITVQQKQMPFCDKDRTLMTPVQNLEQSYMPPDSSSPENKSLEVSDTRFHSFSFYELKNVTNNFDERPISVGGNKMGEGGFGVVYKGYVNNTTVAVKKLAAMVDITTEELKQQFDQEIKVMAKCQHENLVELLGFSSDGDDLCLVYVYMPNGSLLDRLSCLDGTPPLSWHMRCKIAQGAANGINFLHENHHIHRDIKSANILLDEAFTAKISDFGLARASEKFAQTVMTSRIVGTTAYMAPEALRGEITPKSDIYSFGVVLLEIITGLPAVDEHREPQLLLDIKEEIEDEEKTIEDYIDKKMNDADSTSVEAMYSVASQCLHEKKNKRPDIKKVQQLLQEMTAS
Kind of data set: Inhibition of IRAK4 (unknown origin) at 10 uM by single point assay.

Data set [4] concerns the target Cyclin-dependent kinase 2/cyclin A (Homo sapiens) (UniProt P24941+P20248+P78396). Nature of the data set: Inhibition of CDK2/cyclin A (unknown origin) at 10 uM by single point assay. It is filed as protein-complex assay.
The target of data set [5] is Tyrosine-protein kinase Lck (Homo sapiens) (UniProt P06239). Nature of the data set: Inhibition of LCK (unknown origin) at 10 uM by single point assay.
Data set [6] deals with T2, Dual specificity protein kinase TTK (Homo sapiens) (UniProt P33981).
T2 sequence (whole entry): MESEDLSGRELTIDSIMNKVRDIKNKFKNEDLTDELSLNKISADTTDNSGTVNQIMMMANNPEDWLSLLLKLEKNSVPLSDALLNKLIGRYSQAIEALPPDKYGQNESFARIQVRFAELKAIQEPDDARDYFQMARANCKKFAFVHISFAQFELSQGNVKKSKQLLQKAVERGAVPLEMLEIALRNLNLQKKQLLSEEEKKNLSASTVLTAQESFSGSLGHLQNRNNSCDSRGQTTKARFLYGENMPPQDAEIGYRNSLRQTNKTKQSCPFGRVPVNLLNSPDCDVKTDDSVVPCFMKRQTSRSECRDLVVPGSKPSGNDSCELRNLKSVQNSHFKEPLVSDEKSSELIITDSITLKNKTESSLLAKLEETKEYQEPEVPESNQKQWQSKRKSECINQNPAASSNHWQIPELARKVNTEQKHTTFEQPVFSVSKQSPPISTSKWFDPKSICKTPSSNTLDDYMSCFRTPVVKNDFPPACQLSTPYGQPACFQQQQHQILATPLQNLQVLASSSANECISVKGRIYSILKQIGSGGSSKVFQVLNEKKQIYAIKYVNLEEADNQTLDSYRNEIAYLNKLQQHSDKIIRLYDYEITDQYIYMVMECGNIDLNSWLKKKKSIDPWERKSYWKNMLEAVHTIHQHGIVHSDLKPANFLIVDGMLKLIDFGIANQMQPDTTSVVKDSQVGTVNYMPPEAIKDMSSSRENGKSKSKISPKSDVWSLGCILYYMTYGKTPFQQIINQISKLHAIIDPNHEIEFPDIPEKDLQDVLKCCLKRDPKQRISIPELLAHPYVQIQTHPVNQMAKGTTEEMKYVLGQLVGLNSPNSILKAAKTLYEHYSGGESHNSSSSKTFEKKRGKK
Kind of data set: Inhibition of TTK (unknown origin) at 10 uM by single point assay.

Data set [7] addresses Tyrosine-protein kinase JAK1 (Homo sapiens) (UniProt P23458). Nature of the data set: Inhibition of JAK1 (unknown origin) at 10 uM by single point assay.
Data set [8] has as its target Cyclin-dependent kinase 5/CDK5 activator 1 (Homo sapiens) (UniProt Q00535+Q15078). Kind of data set: Inhibition of CDK5/p25 (unknown origin) at 10 uM by single point assay. Type of data set: protein-complex assay.
In data set [9] the target is Cyclin-dependent kinase 1/cyclin B1 (Homo sapiens) (UniProt P06493+P14635). Kind of data set: Inhibition of CDK1/cyclin B (unknown origin) at 10 uM by single point assay. Type of data set: protein-complex assay.
Data set [10] concerns the target T3, Mitogen-activated protein kinase kinase kinase 7 (Homo sapiens) (UniProt O43318).
T3 sequence (whole entry): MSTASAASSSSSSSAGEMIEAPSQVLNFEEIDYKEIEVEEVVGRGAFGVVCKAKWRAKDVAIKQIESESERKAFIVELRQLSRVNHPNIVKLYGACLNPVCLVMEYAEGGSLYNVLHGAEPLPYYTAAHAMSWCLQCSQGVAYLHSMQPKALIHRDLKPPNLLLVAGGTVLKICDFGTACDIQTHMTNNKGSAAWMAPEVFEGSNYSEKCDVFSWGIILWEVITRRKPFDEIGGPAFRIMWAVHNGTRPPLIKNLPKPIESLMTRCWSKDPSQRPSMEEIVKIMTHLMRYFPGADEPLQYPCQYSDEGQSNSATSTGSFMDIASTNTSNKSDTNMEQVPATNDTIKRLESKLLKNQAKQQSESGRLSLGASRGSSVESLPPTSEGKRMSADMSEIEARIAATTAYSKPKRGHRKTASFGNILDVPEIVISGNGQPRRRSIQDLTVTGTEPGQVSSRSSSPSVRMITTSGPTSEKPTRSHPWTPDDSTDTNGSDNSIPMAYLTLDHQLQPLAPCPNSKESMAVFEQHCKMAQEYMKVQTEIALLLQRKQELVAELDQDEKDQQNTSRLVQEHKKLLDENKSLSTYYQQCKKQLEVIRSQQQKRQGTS
Nature of the data set: Inhibition of MAP3K7 (unknown origin) at 10 uM by single point assay.

What is called inhibition in vivo is the change of the read-out against control, counted positive when it falls. What is called inhibition is the relative decrease from the control value, in per cent.

Each structure is given as a SMILES string.

Chain of Cyclin-dependent kinase 5/CDK5 activator 1 (Homo sapiens) (Q00535 whole entry): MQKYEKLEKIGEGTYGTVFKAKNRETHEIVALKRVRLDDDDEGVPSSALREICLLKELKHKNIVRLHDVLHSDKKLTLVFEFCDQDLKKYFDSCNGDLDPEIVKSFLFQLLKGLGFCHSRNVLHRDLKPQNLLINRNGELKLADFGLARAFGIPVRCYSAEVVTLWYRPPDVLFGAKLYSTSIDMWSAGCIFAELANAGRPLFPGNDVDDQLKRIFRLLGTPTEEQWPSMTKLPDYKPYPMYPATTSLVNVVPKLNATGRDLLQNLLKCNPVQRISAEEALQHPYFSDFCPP
Chain of Cyclin-dependent kinase 5/CDK5 activator 1 (Homo sapiens) (Q15078 99-307 partner limits assumed): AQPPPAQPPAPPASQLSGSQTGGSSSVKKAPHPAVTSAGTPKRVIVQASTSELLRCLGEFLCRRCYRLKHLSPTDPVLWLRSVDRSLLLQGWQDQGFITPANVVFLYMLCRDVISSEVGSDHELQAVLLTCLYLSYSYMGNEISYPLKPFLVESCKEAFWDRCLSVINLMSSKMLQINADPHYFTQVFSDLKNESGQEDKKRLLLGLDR
Chain of Cyclin-dependent kinase 1/cyclin B1 (Homo sapiens) (P06493 whole entry, looked up): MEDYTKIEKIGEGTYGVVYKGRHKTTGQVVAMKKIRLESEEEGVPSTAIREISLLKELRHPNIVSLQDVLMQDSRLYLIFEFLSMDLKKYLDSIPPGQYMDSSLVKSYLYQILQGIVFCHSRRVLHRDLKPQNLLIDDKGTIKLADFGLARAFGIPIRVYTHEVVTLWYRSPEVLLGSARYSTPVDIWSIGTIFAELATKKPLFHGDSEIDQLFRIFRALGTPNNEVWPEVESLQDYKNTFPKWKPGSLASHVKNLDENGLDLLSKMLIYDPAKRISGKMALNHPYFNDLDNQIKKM
Chain of Cyclin-dependent kinase 1/cyclin B1 (Homo sapiens) (P14635 whole entry, looked up): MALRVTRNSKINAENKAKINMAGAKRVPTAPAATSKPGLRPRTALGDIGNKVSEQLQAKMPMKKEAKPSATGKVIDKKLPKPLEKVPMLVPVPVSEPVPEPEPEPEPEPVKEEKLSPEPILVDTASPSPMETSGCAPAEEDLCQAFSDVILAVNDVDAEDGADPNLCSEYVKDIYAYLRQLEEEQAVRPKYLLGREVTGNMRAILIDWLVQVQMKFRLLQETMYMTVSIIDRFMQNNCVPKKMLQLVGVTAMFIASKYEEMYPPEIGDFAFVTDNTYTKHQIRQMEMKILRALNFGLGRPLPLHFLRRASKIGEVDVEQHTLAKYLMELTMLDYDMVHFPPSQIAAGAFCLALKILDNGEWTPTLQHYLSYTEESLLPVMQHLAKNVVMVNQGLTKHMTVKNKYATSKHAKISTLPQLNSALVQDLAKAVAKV
Chain of Tyrosine-protein kinase JAK1 (Homo sapiens) (P23458 whole entry): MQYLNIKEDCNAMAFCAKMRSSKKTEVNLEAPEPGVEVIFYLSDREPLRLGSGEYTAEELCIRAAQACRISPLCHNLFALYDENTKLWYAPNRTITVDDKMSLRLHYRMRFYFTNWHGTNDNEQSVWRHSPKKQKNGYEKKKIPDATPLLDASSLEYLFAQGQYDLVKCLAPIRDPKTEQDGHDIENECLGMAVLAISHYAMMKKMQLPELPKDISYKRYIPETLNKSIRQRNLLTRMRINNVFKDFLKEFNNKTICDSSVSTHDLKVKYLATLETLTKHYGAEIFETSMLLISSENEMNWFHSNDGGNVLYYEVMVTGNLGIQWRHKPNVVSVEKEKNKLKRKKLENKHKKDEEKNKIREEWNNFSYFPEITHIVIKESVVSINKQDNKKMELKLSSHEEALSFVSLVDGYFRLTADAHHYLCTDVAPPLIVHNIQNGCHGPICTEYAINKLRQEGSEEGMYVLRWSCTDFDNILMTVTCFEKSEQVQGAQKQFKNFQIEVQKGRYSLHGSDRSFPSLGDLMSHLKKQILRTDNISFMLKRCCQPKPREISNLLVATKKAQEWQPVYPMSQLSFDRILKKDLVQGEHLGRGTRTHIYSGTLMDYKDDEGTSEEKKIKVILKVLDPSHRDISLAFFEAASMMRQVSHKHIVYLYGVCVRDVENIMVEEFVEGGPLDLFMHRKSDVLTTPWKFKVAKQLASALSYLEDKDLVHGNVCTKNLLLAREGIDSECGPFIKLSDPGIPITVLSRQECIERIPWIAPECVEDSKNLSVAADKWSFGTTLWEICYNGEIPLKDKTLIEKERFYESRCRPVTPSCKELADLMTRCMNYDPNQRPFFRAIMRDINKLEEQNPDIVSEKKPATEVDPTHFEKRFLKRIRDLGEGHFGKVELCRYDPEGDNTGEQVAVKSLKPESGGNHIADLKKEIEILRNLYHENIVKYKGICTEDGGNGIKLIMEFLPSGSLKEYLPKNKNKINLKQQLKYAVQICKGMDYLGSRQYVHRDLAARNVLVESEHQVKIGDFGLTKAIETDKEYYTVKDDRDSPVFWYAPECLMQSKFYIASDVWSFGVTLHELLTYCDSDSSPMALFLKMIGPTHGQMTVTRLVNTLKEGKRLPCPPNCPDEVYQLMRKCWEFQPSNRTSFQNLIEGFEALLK
Chain of Tyrosine-protein kinase Lck (Homo sapiens) (P06239 2-509 limits assumed): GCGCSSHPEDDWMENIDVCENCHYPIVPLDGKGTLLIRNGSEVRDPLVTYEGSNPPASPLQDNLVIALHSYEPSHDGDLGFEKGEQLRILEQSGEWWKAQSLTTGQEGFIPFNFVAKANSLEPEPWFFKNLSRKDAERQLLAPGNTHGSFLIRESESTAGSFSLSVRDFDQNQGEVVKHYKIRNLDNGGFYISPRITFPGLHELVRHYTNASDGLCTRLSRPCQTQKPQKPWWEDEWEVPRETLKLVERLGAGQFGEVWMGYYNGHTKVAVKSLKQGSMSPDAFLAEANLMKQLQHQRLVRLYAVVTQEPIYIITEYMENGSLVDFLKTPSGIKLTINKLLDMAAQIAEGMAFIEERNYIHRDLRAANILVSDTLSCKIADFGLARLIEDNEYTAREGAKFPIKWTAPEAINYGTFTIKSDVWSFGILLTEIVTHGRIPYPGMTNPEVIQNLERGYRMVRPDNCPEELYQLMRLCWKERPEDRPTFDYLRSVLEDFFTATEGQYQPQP

In the case of `CC(C)Nc1c(C#N)cnc2cc(-c3cnn(C)c3)ccc12`, in [1], the inhibition in vivo at 100 mg/kg was determined as 44%. The Kp in [2] was 1.2.

Take `C[C@@H](Nc1c(C#N)cnc2cc(-c3ccc(-n4ccoc4=O)cc3)ccc12)C1CC1`: the inhibition in data set [3] is 10%; in [4], 0%; in data set [5] it was 18%; in data set [6] it was 11%; in data set [7], 4%; in data set [8] it was 5%. Moreover, the inhibition in data set [9] is 12%; in [10], -5%.
